Measured values reported in patent US9227923B2, “Pesticidal carboxamides” (Bayer Intellectual Property GmbH, priority 2009, dated 2016).

Legend:
[1] = test system: Tobacco Cutworm (Spodoptera litura) Larvae; assay: Test against tobacco cutworm (Spodoptera litura) larvae, leaf dip; format: in vivo; details: active compound concentration of 100 ppm; third instar larvae; after 7 days
Procedure: (§1) Solvent: 3 parts by weight of dimethylformamide
(§2) Emulsifier: 1 part by weight of polyoxyethylene alkyl phenyl ether
Leaves of sweet potato were immersed in the test solution at the appropriate concentration, and the leaves were dried in air. The leaves were then placed in a petri dish having a diameter of 9 cm, and ten Spodoptera litura at third instar larvae were released therein. The petri dishes were placed in a temperature-controlled chamber at 25° C. After 2 days and 4 days more sweet potato leaves were added. After 7 days, the number of dead larvae was counted to calculate the insecticidal activity. An insecticidal activity of 100% means that all larvae were killed, whereas an insecticidal activity of 0% means that no larva was killed.

[2] = test system: Cucurbit Leaf Beetle (Aulacophora Femoralis); assay: Test against cucurbit leaf beetle (Aulacophora femoralis), leaf dip; format: in vivo; details: active compound concentration of 100 ppm; second instar larvae; after 7 days
Procedure: as §1, §2
Leaves of cucumber were immersed in the test solution at the appropriate concentration, and the leaves were dried in air. The leaves were then put in a plastic cup containing sterilized black soil and five Aulacophora femoralis at second instar larvae were released in the cup. The cups were placed in a temperature-controlled chamber at 25° C. After 7 days, the number of dead larvae was counted, and thus the insecticidal activity was calculated. An insecticidal activity of 100% means that all larvae were killed, whereas an insecticidal activity of 0% means that no larva was killed.

Row | Structure (SMILES) | insecticidal activity [1] [%] | insecticidal activity [2] [%]
1 | CCc1cc(C(F)(C(F)(F)F)C(F)(F)F)cc(C)c1NC(=O)c1ccc(CNC(=O)C[S+](C)[O-])c(Br)c1 (stereo not drawn) [Compound 5-177] | 100 | 100
2 | CCc1cc(C(F)(C(F)(F)F)C(F)(F)C(F)(F)F)cc(C)c1NC(=O)c1ccc(CNC(=O)c2cccnc2Cl)c(F)c1F (stereo not drawn) [Compound 5-206] | 100 | 100
3 | CCc1cc(C(F)(C(F)(F)F)C(F)(F)C(F)(F)F)cc(C)c1NC(=O)c1ccc(CNC(=O)C2CC2)c(F)c1F (stereo not drawn) [Compound 5-203] | 100 | 100
4 | CCC(=O)NCc1ccc(C(=O)Nc2c(C)cc(C(F)(C(F)(F)F)C(F)(F)F)cc2CC)c(F)c1 [Compound 5-45] | 100 | 100
5 | CCc1cc(C(F)(C(F)(F)F)C(F)(F)F)cc(C)c1NC(=O)c1ccc(-n2cncn2)c2ccccc12 [Compound 2-2] | 100 | 100
6 | CCc1cc(C(F)(C(F)(F)F)C(F)(F)F)cc(C)c1NC(=O)c1ccc2c(c1)CCC2NC(=O)CSC (stereo not drawn) [Compound 10-22] | 100 | 100
7 | CCC(=O)NCc1ccc(C(=O)Nc2c(C)cc(C(F)(C(F)(F)F)C(F)(F)F)cc2CC)cc1C [Compound 5-100] | 100 | 100
8 | CCC(=O)NCc1ccc(C(=O)Nc2c(C)cc(C(F)(C(F)(F)F)C(F)(F)C(F)(F)F)cc2C)cc1Br (stereo not drawn) [Compound 5-212] | 100 | 100
9 | CCc1cc(C(F)(C(F)(F)F)C(F)(F)F)cc(C)c1NC(=O)c1ccc(C(C)NC(=O)CC(F)(F)F)cc1 (stereo not drawn) [Compound 9-6] | 100 | 100
10 | CCC(=O)NCc1ccc(C(=O)Nc2c(C)cc(C(F)(C(F)(F)F)C(F)(F)F)cc2CC)nc1 [Compound 7-3] | 100 | 100
11 | CCc1cc(C(F)(C(F)(F)F)C(F)(F)C(F)(F)F)cc(C)c1NC(=O)c1ccc(CNC(=O)CC(F)(F)F)c(I)c1 (stereo not drawn) [Compound 5-198] | 100 | 100
12 | O=C(CC(F)(F)F)NCc1ccc(C(=O)Nc2c(Cl)cc(C(F)(C(F)(F)F)C(F)(F)F)cc2Cl)cc1 [Compound 5-226] |  | 100
13 | CCC(=O)NCc1cc(F)c(C(=O)Nc2c(C)cc(C(F)(C(F)(F)F)C(F)(F)F)cc2CC)cc1F [Compound 5-59] | 100 | 100
14 | CCc1cc(C(F)(C(F)(F)F)C(F)(F)C(F)(F)F)cc(C)c1NC(=O)c1ccc(CNC(=O)CC(F)(F)F)c(F)c1F (stereo not drawn) [Compound 5-205] | 100 | 100
15 | CCc1cc(C(F)(C(F)(F)F)C(F)(F)F)cc(C)c1NC(=O)c1ccc(CNC(=O)c2ccccc2F)cc1 [Compound 5-34] | 100 | 100
16 | CCc1cc(C(F)(C(F)(F)F)C(F)(F)F)cc(C)c1NC(=O)c1ccc(CNC(=O)c2cccnc2F)c2ccccc12 [Compound 6-7] | 100 | 100
17 | CCc1cc(C(F)(C(F)(F)F)C(F)(F)C(F)(F)F)cc(C)c1NC(=O)c1ccc(CNC(C)=O)c(F)c1 (stereo not drawn) [Compound 5-144] | 100 | 100
18 | CCc1cc(C(F)(C(F)(F)F)C(F)(F)F)cc(C)c1NC(=O)c1ccc(CNC(C)=O)cc1Cl [Compound 5-65] |  | 100
19 | Cc1cc(C(F)(C(F)(F)F)C(F)(F)F)cc(C)c1NC(=O)c1ccc(-n2cncn2)cc1Cl [Compound 1-5] |  | 100
20 | N#Cc1ccc(C(=O)Nc2c(Cl)cc(C(F)(C(F)(F)F)C(F)(F)F)cc2Cl)cc1 [Compound I-24] | 100 | 100
21 | CCc1cc(C(F)(C(F)(F)F)C(F)(F)F)cc(C)c1NC(=O)c1ccc(CNC(C)=O)nc1 [Compound 8-2] | 100 | 100
22 | CCc1cc(C(F)(C(F)(F)F)C(F)(F)F)cc(C)c1NC(=O)c1ccc(CNC(=O)c2cccc(F)c2)cc1 [Compound 5-35] | 100 | 100
23 | O=C(Nc1c(Cl)cc(C(F)(C(F)(F)F)C(F)(F)F)cc1Cl)c1ccc(CNC(=O)C2CC2)c(Cl)c1 [Compound 5-231] | 100 | 100
24 | CCc1cc(C(F)(C(F)(F)F)C(F)(F)F)cc(C)c1NC(=O)c1ccc(CNS(C)(=O)=O)c(Br)c1 [Compound 5-96] | 100 | 100
25 | CCc1cc(C(F)(C(F)(F)F)C(F)(F)F)cc(C)c1NC(=O)c1ccc(CNC(=O)CC2CC2)cc1F [Compound 5-46] | 100 | 100

Row | Structure (SMILES) | insecticidal activity [1] [%] | insecticidal activity [2] [%]
26 | CCc1cc(C(F)(C(F)(F)F)C(F)(F)F)cc(C)c1NC(=O)c1ccc(-n2cncn2)nc1 [Compound 4-2] | 100 | 100
27 | CCc1cc(C(F)(C(F)(F)F)C(F)(F)C(F)(F)F)cc(C)c1NC(=O)c1ccc(CNC(C)=O)c(F)c1F (stereo not drawn) [Compound 5-201] | 100 | 100
28 | CCc1cc(C(F)(C(F)(F)F)C(F)(F)F)cc(C)c1NC(=O)c1ccc(CNC(C)=O)c(F)c1F [Compound 5-51] | 100 | 100
29 | CC(=O)NCc1ccc(C(=O)Nc2c(C)cc(C(F)(C(F)(F)F)C(F)(F)F)cc2C)c(F)c1 [Compound 5-21] | 100 | 100
30 | CC(=O)NCc1ccc(C(=O)Nc2c(C)cc(C(F)(C(F)(F)F)C(F)(F)C(F)(F)F)cc2C)cc1Br (stereo not drawn) [Compound 5-211] | 100 | 100
31 | CCc1cc(C(F)(C(F)(F)F)C(F)(F)C(F)(F)F)cc(C)c1NC(=O)c1ccc(CNC(=O)CC(F)(F)F)c(Br)c1 (stereo not drawn) [Compound 5-161] | 100 | 100
32 | CCC(=O)NCc1ccc(C(=O)Nc2c(C)cc(C(F)(C(F)(F)F)C(F)(F)C(F)(F)F)cc2CC)c(F)c1F (stereo not drawn) [Compound 5-202] | 100 | 100
33 | CCc1cc(C(F)(C(F)(F)F)C(F)(F)F)cc(C)c1NC(=O)c1cc(F)c(CNC(=O)c2cccnc2Cl)cc1F [Compound 5-183] | 100 | 100
34 | CCc1cc(C(F)(C(F)(F)F)C(F)(F)F)cc(C)c1NC(=O)c1ccc(CNC(=O)CS(C)(=O)=O)c(Br)c1 [Compound 5-178] | 100 | 100
35 | CCC(=O)NCc1ccc(C(=O)Nc2c(C)cc(C(F)(C(F)(F)F)C(F)(F)C(F)(F)F)cc2C)cc1 (stereo not drawn) [Compound 5-127] |  | 100
36 | CCC(=O)NCc1ccc(C(=O)Nc2c(C)cc(C(F)(C(F)(F)F)C(F)(F)C(F)(F)F)cc2CC)cc1F (stereo not drawn) [Compound 5-145] | 100 | 100
37 | Cc1cc(C(F)(C(F)(F)F)C(F)(F)F)cc(C)c1NC(=O)c1ccc(CNC(=O)CC2CC2)cc1 [Compound 5-8] | 100 | 100
38 | CCC(=O)NCc1ccc(C(=O)Nc2c(Cl)cc(C(F)(C(F)(F)F)C(F)(F)C(F)(F)F)cc2Cl)cc1 (stereo not drawn) [Compound 5-323] | 100 | 100
39 | O=C(Nc1c(Cl)cc(C(F)(C(F)(F)F)C(F)(F)C(F)(F)F)cc1Cl)c1ccc(CNC(=O)C2CC2)cc1 (stereo not drawn) [Compound 5-326] | 100 | 100
40 | CCc1cc(C(F)(C(F)(F)F)C(F)(F)C(F)(F)F)cc(C)c1NC(=O)c1ccc(CNC(=O)CC2CC2)c(F)c1F (stereo not drawn) [Compound 5-204] | 100 | 100
41 | N#Cc1ccc(C(=O)Nc2c(Br)cc(C(F)(C(F)(F)F)C(F)(F)F)cc2Br)cc1 [Compound I-26] | 100 | 100
42 | CCC(=O)NCc1ccc(C(=O)Nc2c(C)cc(C(F)(C(F)(F)F)C(F)(F)F)cc2C)c(F)c1 [Compound 5-22] | 100 | 100
43 | CC(=O)NCc1ccc(C(=O)Nc2c(Cl)cc(C(F)(C(F)(F)F)C(F)(F)C(F)(F)F)cc2Cl)cc1 (stereo not drawn) [Compound 5-322] | 100 | 
44 | CCC(=O)NCc1ccc(C(=O)Nc2c(C)cc(C(F)(C(F)(F)F)C(F)(F)F)cc2CC)c(F)c1F [Compound 5-52] | 100 | 
45 | CCc1cc(C(F)(C(F)(F)F)C(F)(F)C(F)(F)F)cc(C)c1NC(=O)c1ccc(CN)c(Cl)c1 (stereo not drawn) [Compound 5-149] | 100 | 
46 | CCc1cc(C(F)(C(F)(F)F)C(F)(F)F)cc(C)c1NC(=O)c1ccc(CNC(=O)CC2CC2)cc1Cl [Compound 5-67] | 100 | 
47 | CCC(=O)NCc1cc(C(=O)Nc2c(C)cc(C(F)(C(F)(F)F)C(F)(F)F)cc2CC)ccc1-n1cncn1 [Compound 12-4] | 100 | 
48 | CCc1cc(C(F)(C(F)(F)F)C(F)(F)F)cc(C)c1NC(=O)c1ccc(CNC(=O)CC2CC2)c(C)c1 [Compound 5-101] | 100 | 
49 | O=C(CC(F)(F)F)NCc1ccc(C(=O)Nc2c(Cl)cc(C(F)(C(F)(F)F)C(F)(F)F)cc2Cl)cc1Cl [Compound 5-232] | 100 | 
